pIC50: −log10 of the molar value. Read-outs that look alike come from different tables or passages of the source.
Tests used:
[1] = target: T1, human full length PIK3KA Wild-type (p110α/p85α complex) (Homo sapiens, UniProt P42336); assay: PI3K-Alpha Kinase (PIK3CA) biochemical activity, wild-type (ADP-Glo); details: Soy PI lipid substrate, 20 uM ATP
T1 construct: Recombinant, catalytically active human full length PIK3KA Wild-type and H1047R mutant were purchased; 6xHis (N); purchased EMD Millipore Sigma 14-602M
In short: (§1)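 ADP formation, measured by ADP-Glo luminescence after reaction to about 10% ATP conversion at 27° C., gives 10-point 4-parameter IC50 curves normalized to no-enzyme and DMSO controls. Lipid substrate was PIP2diC8 or Soy PI at 50 uM, with 20 uM ATP. WT or H1047R p110α/p85α complex (1-5 nM) was preincubated 1 h with compound.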

[2] = target: PI3K-α (PIK3CA) in MDA-MB-453 cells (Homo sapiens, UniProt P42336); assay: PI3K-Alpha Kinase (PIK3CA) activity in vitro cell based assay (AlphaLisa SureFire)
Sequence of PI3K-α (PIK3CA) in MDA-MB-453 cells (P42336 whole entry): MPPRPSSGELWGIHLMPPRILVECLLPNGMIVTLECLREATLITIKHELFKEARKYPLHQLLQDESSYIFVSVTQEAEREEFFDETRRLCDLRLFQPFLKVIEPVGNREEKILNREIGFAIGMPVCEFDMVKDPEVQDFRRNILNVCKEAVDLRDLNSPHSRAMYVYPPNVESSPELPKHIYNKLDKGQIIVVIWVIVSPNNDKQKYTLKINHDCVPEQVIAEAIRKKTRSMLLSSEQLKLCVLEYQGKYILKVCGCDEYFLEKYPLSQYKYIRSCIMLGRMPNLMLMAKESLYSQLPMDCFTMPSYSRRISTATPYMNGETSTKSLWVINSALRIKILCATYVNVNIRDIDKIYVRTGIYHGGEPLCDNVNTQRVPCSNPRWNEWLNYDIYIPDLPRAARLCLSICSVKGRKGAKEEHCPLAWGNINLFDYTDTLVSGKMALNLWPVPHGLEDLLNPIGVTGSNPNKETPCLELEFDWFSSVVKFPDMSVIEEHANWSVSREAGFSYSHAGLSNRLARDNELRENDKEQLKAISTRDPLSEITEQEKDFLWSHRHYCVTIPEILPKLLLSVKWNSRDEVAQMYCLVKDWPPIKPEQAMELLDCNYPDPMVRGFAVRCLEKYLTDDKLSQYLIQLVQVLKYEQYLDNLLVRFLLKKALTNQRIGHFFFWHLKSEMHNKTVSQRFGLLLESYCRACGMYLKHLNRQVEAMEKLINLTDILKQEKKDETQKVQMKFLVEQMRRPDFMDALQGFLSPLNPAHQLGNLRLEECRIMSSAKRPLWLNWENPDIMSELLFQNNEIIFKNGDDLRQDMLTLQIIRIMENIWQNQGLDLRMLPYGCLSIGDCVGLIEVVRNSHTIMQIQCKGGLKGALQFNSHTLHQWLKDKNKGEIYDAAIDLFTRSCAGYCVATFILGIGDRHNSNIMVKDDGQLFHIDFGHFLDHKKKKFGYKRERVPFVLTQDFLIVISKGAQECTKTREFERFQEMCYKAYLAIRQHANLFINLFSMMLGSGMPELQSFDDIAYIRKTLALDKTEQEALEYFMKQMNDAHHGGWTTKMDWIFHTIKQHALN
Sequence of PI3K-α (PIK3CA) in MDA-MB-453 cells (P27986 2-724, further chain): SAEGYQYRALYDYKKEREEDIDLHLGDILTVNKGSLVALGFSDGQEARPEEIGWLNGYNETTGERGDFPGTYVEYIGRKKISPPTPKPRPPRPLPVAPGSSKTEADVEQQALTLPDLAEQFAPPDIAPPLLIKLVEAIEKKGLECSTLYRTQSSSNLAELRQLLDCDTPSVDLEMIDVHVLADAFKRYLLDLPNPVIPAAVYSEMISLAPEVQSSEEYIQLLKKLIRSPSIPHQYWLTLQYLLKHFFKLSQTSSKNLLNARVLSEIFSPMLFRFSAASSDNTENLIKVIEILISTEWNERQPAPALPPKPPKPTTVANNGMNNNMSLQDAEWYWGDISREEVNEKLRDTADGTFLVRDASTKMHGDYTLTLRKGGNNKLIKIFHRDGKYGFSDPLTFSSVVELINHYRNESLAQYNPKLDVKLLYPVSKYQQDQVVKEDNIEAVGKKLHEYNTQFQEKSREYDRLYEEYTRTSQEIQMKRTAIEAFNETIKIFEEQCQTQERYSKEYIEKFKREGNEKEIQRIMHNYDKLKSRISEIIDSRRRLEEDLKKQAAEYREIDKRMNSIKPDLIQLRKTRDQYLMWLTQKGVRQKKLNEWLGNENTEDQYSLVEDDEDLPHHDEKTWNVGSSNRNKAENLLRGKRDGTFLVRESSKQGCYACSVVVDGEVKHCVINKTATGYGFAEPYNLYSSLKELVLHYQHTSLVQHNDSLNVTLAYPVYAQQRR
In short: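 Serum-free MDA-MB-453 cells with 1 μg/mL insulin treated 3 h with a 10-point compound series in 0.3% DMSO; lysates analysed by AlphaLisa SureFire. Relative IC50 from 4-parameter fit of % inhibition versus DMSO (max) and 1 μM GDC-0032 (min) controls, duplicates.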

[3] = target: T2, human full length PIK3KA H1047R mutant (p110α/p85α complex) (Homo sapiens, UniProt P42336, H1047R); assay: PI3K-Alpha Kinase (PIK3CA) biochemical activity, H1047R mutant (ADP-Glo); details: Soy PI lipid substrate, 20 uM ATP
T2 construct: Recombinant, catalytically active human full length PIK3KA Wild-type and H1047R mutant were purchased; 6xHis (N); purchased EMD Millipore Sigma 14-792M
T2 sequence (P42336 whole entry H1047R): as the sequence (P42336 whole entry) above, with H1047R counted along it
T2 sequence (P27986 whole entry partner): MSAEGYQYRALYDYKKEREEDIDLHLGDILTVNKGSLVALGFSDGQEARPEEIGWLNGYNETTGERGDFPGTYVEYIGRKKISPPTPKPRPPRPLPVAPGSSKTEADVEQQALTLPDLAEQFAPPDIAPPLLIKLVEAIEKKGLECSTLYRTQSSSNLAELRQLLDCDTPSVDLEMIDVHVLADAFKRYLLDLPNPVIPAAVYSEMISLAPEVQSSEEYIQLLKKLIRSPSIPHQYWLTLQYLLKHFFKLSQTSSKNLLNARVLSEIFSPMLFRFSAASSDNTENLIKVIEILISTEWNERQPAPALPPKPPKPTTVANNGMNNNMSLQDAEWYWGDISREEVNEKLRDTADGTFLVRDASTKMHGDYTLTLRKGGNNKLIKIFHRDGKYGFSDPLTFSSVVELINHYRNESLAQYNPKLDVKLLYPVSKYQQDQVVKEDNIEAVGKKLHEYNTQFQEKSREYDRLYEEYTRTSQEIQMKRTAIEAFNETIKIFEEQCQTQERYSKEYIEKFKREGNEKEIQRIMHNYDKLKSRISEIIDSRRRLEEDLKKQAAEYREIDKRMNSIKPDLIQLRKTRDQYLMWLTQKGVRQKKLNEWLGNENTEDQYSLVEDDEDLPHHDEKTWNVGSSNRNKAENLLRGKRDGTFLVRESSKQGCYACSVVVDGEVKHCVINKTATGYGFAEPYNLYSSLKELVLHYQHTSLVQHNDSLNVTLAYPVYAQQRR
In short: as §1

[4] = 0% FBS, 3 hours treatment, read-out: PI3K-α (PIK3CA) in vitro cell based assay IC50
[5] = read-out: PI3K-α (PIK3CA) in vitro cell based assay IC50, 0% FBS, 3 hours treatment

| Compound | pIC50 [1] | pIC50 [2, 4] | pIC50 [3] | pIC50 [2, 5] |
| --- | --- | --- | --- | --- |
| Cc1cc(C(C)Nc2ccccc2C(=O)O)c2oc(-c3cnc(OC(C)C)nc3)cc(=O)c2c1 (single isomer, unassigned; isomer 1) [Example 41, 2-[1-[2-(2-Isopropoxypyrimidin-5-yl)-6-methyl-4-oxo-chromen-8-yl]ethylamino]benzoic acid, Isomer 1] | < 5.00 | < 6.30 | < 5.00 |  |
| Cc1cc(C(C)Nc2ccc(Cl)cc2C(=O)O)c2oc(-c3cccnc3)c(C)c(=O)c2c1 (single isomer, unassigned; isomer 1) [Example 132, 5-Chloro-2-[1-[3,6-dimethyl-4-oxo-2-(3-pyridyl)chromen-8-yl]ethylamino]benzoic acid, Isomer 1] | 6.00 to 6.30 | > 7.30 | > 6.30 |  |
| Cc1cc(C(C)Nc2ccc(C)nc2C(=O)O)c2oc(-c3ccccn3)c(C)c(=O)c2c1 (single isomer, unassigned; isomer 1) [Example 122, 3-[1-[3,6-Dimethyl-4-oxo-2-(2-pyridyl)chromen-8-yl]ethylamino]-6-methyl-pyridine-2-carboxylic acid, Isomer 1] | 5.00 to 5.30 | 7.00 to 7.30 | > 6.30 |  |
| COc1ccccc1-n1cc(-c2oc3c(C(C)Nc4ccccc4C(=O)O)cc(C)cc3c(=O)c2C)cn1 (single isomer, unassigned) [Example 70, 2-[1-2-[1-(2-Methoxyphenyl)pyrazol-4-yl]-3,6-dimethyl-4-oxo-chromen-8-yl]ethylamino]benzoic acid, Isomer 1,2,2,2-trifluoroacetic acid] | 5.30 to 6.00 |  | 5.30 to 6.00 | > 7.30 |
| Cc1cc(C(C)Nc2ccccc2C(=O)O)c2oc(-c3ccc(F)nc3)cc(=O)c2c1 (single isomer, unassigned; isomer 1) [Example 35, 2-[1-[2-(6-Fluoro-3-pyridyl)-6-methyl-4-oxo-chromen-8-yl]ethylamino]benzoic acid, Isomer 1] | < 5.00 | < 6.30 | < 5.00 |  |
| Cc1cc(C(C)Nc2ccccc2C(=O)O)c2oc(-c3cnn(-c4ccc(C#N)cn4)c3)cc(=O)c2c1 (single isomer, unassigned) [Example 83, 2-[1-[2-[1-(5-Cyano-2-pyridyl)pyrazol-4-yl]-6-methyl-4-oxo-chromen-8-yl]ethylamino]benzoic acid, Isomer 2,2,2,2-trifluoroacetic acid] | < 5.00 |  | > 6.30 | 7.00 to 7.30 |

— patent US20230014445A1, “ALLOSTERIC CHROMENONE INHIBITORS OF PHOSPHOINOSITIDE 3-KINASE (PI3K) FOR THE TREATMENT OF DISEASE” (Petra Pharma Corporation, priority 2021, published 2023)
